Measurements: patent publication US20140271723A1 (priority 2013, published 2014)

Columns and labels:
CRSBP-1 = CRSBP-1 (Mus musculus, UniProt Q8BHC0); details: cited from earlier work
[1] = test system: lymphatic endothelial cell (LEC) monolayers; details: cited from earlier work
[2] = test system: lymphatic intercellular junctions; details: mouse, in vivo; cited from earlier work
pseudorabies virus (PRV) = test system: pseudorabies virus (PRV); design: species or system pigs; details: pig, in vivo

CRSBP-1, sequence (Q8BHC0 24-318): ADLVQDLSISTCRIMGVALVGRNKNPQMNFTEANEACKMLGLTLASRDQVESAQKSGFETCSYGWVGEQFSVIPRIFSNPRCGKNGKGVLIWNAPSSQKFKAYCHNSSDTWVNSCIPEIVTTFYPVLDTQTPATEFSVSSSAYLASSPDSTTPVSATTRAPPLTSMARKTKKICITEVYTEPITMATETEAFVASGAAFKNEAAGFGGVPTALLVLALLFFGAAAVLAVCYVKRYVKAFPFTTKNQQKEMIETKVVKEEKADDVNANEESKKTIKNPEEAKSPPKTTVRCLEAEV

Substance	binding to CRSBP-1 (CRSBP-1)	disruption of VE-cadherin-mediated discontinuous intercellular adhesion and opening of intercellular junctions [1]	activity in control experiments as compared to VEGF peptide and PDGF peptide [2]	increase in serum antibody titer as compared to vaccine only (pseudorabies virus (PRV)) [fold]
KKSVRGKGKGQKRKRKKSRYKSWSV [VEGF peptide]	high affinity	induce disruption	–	–
polylysine	–	–	very weak activity	–
YVRVRRPPKGKHRKFKHTH [PDGF peptide]	high affinity	induce disruption	–	~4
polyarginine	–	–	very weak activity	–
